Measured values as given in publication PMC9596378, “Discovery and molecular basis of subtype-selective cyclophilin inhibitors” (Nature Chemical Biology, 2022).
Where “and” joins values, the source holds several entries; their conditions need not be identical. Equal values may be shown once. Read-outs that look alike come from different tables or passages of the source.

Assays:
[1] = biological target: T1, CypA (Homo sapiens, UniProt P62937); experiment: Chymotrypsin coupled prolyl-isomerase assay; format: biochemical; settings: for prolyl-isomerase activity (raw dose-response value): CypA, in s^-1
T1 construct: PPIA (UniProtKB Entry P62937: residues 1–165); made in house; host or cells: E. coli BL21(DE3)
Summary of the method: (§1)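 Recombinant cyclophilin (5 nM final) in 25 mM HEPES pH 7.3, 100 mM NaCl, 0.01% Triton X-100 was preincubated with compound at 2–3 °C. It was then coupled with 25 µM α-chymotrypsin and 5 µM Suc-AAPF-AMC (LiCl/TFE), and AMC fluorescence was followed for 330 s.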

[2] = biological target: T2, CypC (Homo sapiens, UniProt P45877); experiment: Chymotrypsin coupled prolyl-isomerase assay; format: biochemical; settings: for prolyl-isomerase activity (raw dose-response value): CypC, in s^-1
T2 construct: PPIC (UniProtKB Entry P45877: residues 24–212); host or cells: E. coli BL21(DE3)
Summary of the method: as §1

[3] = biological target: T3, CypE (Homo sapiens, UniProt Q9UNP9); experiment: Chymotrypsin coupled prolyl-isomerase assay; format: biochemical; settings: for prolyl-isomerase activity (raw dose-response value): CypE, in s^-1
T3 construct: PPIE (UniProtKB Entry Q9UNP9: residues 131–301); host or cells: E. coli BL21(DE3)
Summary of the method: as §1

[4] = biological target: T4, CypG (Homo sapiens, UniProt Q13427); experiment: Chymotrypsin coupled prolyl-isomerase assay; format: biochemical; settings: for prolyl-isomerase activity (raw dose-response value): CypG, in s^-1
T4 construct: PPIG (UniProtKB Entry Q13427: residues 1–179); His6 with thrombin site (pET28a LIC leader) (N); host or cells: E. coli BL21(DE3)
T4 sequence (Q13427 1-179): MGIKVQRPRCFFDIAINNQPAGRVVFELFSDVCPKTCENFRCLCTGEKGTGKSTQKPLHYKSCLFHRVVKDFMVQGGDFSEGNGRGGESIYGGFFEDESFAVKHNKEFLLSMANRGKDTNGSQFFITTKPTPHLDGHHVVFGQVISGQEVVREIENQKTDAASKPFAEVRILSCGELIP
Summary of the method: as §1

[5] = biological target: T5, CypH (Homo sapiens, UniProt O43447); experiment: Chymotrypsin coupled prolyl-isomerase assay; format: biochemical; settings: for prolyl-isomerase activity (raw dose-response value): CypH
T5 construct: PPIH (UniProtKB Entry O43447: residues 1–177); His6 with TEV site (2BT vector leader) (N); made in house; host or cells: E. coli BL21(DE3)
Summary of the method: as §1

[6] = biological target: T6, CypB (Homo sapiens, UniProt P23284); experiment: biochemical; settings: for prolyl-isomerase activity (raw dose-response value): CypB
T6 construct: PPIB (UniProtKB Entry P23284: residues 34–216); His6 with TEV site (2BT vector leader) (N); made in house; host or cells: E. coli BL21(DE3)
Summary of the method: as §1

[7] = biological target: T7, PPIL1 (Homo sapiens, UniProt Q9Y3C6); experiment: Chymotrypsin coupled prolyl-isomerase assay; format: biochemical
T7 construct: PPIL1 (UniProtKB Entry Q9Y3C6: residues 1–166); made in house; host or cells: E. coli BL21(DE3)
T7 sequence (Q9Y3C6 1-166): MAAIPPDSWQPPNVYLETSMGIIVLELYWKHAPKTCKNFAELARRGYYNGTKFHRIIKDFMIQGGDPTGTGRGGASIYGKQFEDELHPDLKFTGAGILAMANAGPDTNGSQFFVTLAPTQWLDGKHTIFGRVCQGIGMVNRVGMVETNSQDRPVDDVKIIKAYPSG

T6 sequence (P23284 34-216): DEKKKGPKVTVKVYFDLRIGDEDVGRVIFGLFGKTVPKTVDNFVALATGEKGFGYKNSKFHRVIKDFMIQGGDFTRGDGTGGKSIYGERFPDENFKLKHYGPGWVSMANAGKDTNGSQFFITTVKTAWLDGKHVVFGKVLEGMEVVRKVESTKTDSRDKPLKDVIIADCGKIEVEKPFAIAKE
T2 sequence (P45877 24-212): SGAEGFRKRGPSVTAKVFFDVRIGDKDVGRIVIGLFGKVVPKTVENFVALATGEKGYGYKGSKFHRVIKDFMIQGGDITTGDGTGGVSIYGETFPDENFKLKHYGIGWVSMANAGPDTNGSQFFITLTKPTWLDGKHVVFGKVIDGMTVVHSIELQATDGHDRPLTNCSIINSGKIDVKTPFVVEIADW
T3 sequence (Q9UNP9 131-301): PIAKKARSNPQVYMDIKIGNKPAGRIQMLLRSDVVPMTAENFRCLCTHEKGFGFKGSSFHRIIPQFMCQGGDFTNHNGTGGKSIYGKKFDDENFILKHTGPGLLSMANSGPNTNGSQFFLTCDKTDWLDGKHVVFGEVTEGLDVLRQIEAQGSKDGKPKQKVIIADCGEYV
T5 sequence (O43447 whole entry, the tested form may be a part): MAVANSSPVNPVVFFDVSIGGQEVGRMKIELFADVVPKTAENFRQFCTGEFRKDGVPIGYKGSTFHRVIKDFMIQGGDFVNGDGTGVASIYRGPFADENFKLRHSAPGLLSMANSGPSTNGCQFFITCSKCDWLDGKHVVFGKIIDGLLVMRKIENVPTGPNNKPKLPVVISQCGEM
T1 sequence (P62937 whole entry, the tested form may be a part): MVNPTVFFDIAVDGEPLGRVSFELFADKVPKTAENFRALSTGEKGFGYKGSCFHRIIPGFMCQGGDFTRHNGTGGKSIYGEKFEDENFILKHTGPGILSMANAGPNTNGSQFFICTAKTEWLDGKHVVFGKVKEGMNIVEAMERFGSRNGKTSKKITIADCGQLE

NCCOCCNC(=O)[C@@H]1CCNC(=O)/C=C/C(=O)N2CCC[C@](Cc3ccccc3)(C2)C(=O)N[C@@H](Cc2ccc(-c3ccccc3)cc2)C(=O)NCc2ccccc2CC(=O)N1 [Compound B2]
prolyl-isomerase activity (raw dose-response value) ([1]; dose 0.00457247 µM): 0.09251 and 0.1054 and 0.1209 | prolyl-isomerase activity (raw dose-response value) ([1]; dose 0.0137174 µM): 0.07185 and 0.09383 and 0.08908 | prolyl-isomerase activity (raw dose-response value) ([1]; dose 0.0411523 µM): 0.0832 and 0.08759 and 0.09561 | prolyl-isomerase activity (raw dose-response value) ([1]; dose 0.123457 µM): 0.08468 and 0.0712 and 0.08817 | prolyl-isomerase activity (raw dose-response value) ([1]; dose 0.37037 µM): 0.0566 and 0.04501 and 0.06387 | prolyl-isomerase activity (raw dose-response value) ([1]; dose 1.11111 µM): 0.03625 and 0.03272 and 0.04381 | prolyl-isomerase activity (raw dose-response value) ([1]; dose 3.33333 µM): 0.02153 and 0.02404 and 0.02804 | prolyl-isomerase activity (raw dose-response value) ([1]; dose 10 µM): 0.01608 and 0.01935 and 0.02238 | IC50 ([1]; wild-type CypA, read-out: Wild-Type Cyclophilin Prolyl Isomerase Inhibition IC50 Values, CypA): 0.24 µM | prolyl-isomerase activity (raw dose-response value) ([2]; dose 0.00976562 µM): 0.05723 and 0.05806 and 0.05564 | prolyl-isomerase activity (raw dose-response value) ([2]; dose 0.0195312 µM): 0.05812 and 0.0569 and 0.05659 | prolyl-isomerase activity (raw dose-response value) ([2]; dose 0.0390625 µM): 0.05511 and 0.05318 and 0.05171 | prolyl-isomerase activity (raw dose-response value) ([2]; dose 0.078125 µM): 0.04827 and 0.04606 and 0.04304 | prolyl-isomerase activity (raw dose-response value) ([2]; dose 0.15625 µM): 0.04287 and 0.04429 and 0.04035 | prolyl-isomerase activity (raw dose-response value) ([2]; dose 0.3125 µM): 0.03472 and 0.03475 and 0.034 | prolyl-isomerase activity (raw dose-response value) ([2]; dose 0.625 µM): 0.02805 and 0.0282 and 0.0272 | prolyl-isomerase activity (raw dose-response value) ([2]; dose 1.25 µM): 0.02258 and 0.02214 and 0.02094 | prolyl-isomerase activity (raw dose-response value) ([2]; dose 2.5 µM): 0.01704 and 0.018 and 0.01642 | prolyl-isomerase activity (raw dose-response value) ([2]; dose 5 µM): 0.01304 and 0.01485 and 0.01185 | prolyl-isomerase activity (raw dose-response value) ([2]; dose 10 µM): 0.009494 and 0.009626 and 0.009002 | IC50 ([2]; wild-type CypC, read-out: Wild-Type Cyclophilin Prolyl Isomerase Inhibition IC50 Values, CypC): 0.38 µM | prolyl-isomerase activity (raw dose-response value) ([3]; dose 0.00976562 µM): 0.1022 and 0.09371 and 0.09482 | prolyl-isomerase activity (raw dose-response value) ([3]; dose 0.0195312 µM): 0.1041 and 0.09004 and 0.09109 | prolyl-isomerase activity (raw dose-response value) ([3]; dose 0.0390625 µM): 0.08953 and 0.08464 and 0.08549 | prolyl-isomerase activity (raw dose-response value) ([3]; dose 0.078125 µM): 0.08163 and 0.08105 and 0.08006 | prolyl-isomerase activity (raw dose-response value) ([3]; dose 0.15625 µM): 0.07541 and 0.07108 and 0.06602 | prolyl-isomerase activity (raw dose-response value) ([3]; dose 0.3125 µM): 0.0578 and 0.05386 and 0.0523 | prolyl-isomerase activity (raw dose-response value) ([3]; dose 0.625 µM): 0.04345 and 0.04205 and 0.03853 | prolyl-isomerase activity (raw dose-response value) ([3]; dose 1.25 µM): 0.03208 and 0.02851 and 0.02629 | prolyl-isomerase activity (raw dose-response value) ([3]; dose 2.5 µM): 0.02324 and 0.0218 and 0.01925 | prolyl-isomerase activity (raw dose-response value) ([3]; dose 5 µM): 0.01397 and 0.01461 and 0.01313 | prolyl-isomerase activity (raw dose-response value) ([3]; dose 10 µM): 0.008566 and 0.009565 and 0.009677 | IC50 ([3]; wild-type CypE, read-out: Wild-Type Cyclophilin Prolyl Isomerase Inhibition IC50 Values, CypE): 0.3 µM | prolyl-isomerase activity (raw dose-response value) ([4]; dose 6.25 µM): 0.07439 and 0.0801 and 0.0712 | prolyl-isomerase activity (raw dose-response value) ([4]; dose 12.5 µM): 0.06556 and 0.07016 and 0.06297 | prolyl-isomerase activity (raw dose-response value) ([4]; dose 25 µM): 0.0539 and 0.06023 and 0.05271 | prolyl-isomerase activity (raw dose-response value) ([4]; dose 50 µM): 0.04026 and 0.03816 and 0.04547 | prolyl-isomerase activity (raw dose-response value) ([4]; dose 100 µM): 0.02765 and 0.03143 | IC50 ([4]; wild-type CypG, read-out: Wild-Type Cyclophilin Prolyl Isomerase Inhibition IC50 Values, CypG): 37 µM | prolyl-isomerase activity (raw dose-response value) ([5]; dose 0.0228624 µM): 0.05989 and 0.06269 and 0.07687 | prolyl-isomerase activity (raw dose-response value) ([5]; dose 0.0685871 µM): 0.06674 and 0.06641 and 0.06471 | prolyl-isomerase activity (raw dose-response value) ([5]; dose 0.205761 µM): 0.06507 and 0.06674 and 0.06594 | prolyl-isomerase activity (raw dose-response value) ([5]; dose 0.617284 µM): 0.06577 and 0.07132 and 0.06657 | prolyl-isomerase activity (raw dose-response value) ([5]; dose 1.85185 µM): 0.06049 and 0.06065 and 0.0705 | prolyl-isomerase activity (raw dose-response value) ([5]; dose 5.55556 µM): 0.06127 and 0.06318 and 0.06895 | prolyl-isomerase activity (raw dose-response value) ([5]; dose 16.6667 µM): 0.05909 and 0.0562 and 0.05955 | prolyl-isomerase activity (raw dose-response value) ([5]; dose 50 µM): 0.04477 and 0.04513 and 0.04995 | IC50 ([5]; prolyl-isomerase inhibition, 5 nM cyclophilin, read-out: IC50 CypH): ~100 µM | IC50 ([5]; wild-type CypH, read-out: Wild-Type Cyclophilin Prolyl Isomerase Inhibition IC50 Values, CypH): 100 µM | prolyl-isomerase activity (raw dose-response value) ([6]; dose 0.00457247 µM): 0.09192 and 0.1036 and 0.1252 | prolyl-isomerase activity (raw dose-response value) ([6]; dose 0.0137174 µM): 0.09377 and 0.09227 and 0.1138 | prolyl-isomerase activity (raw dose-response value) ([6]; dose 0.0411523 µM): 0.08535 and 0.07571 and 0.07363 | prolyl-isomerase activity (raw dose-response value) ([6]; dose 0.123457 µM): 0.076 and 0.06873 and 0.07349 | prolyl-isomerase activity (raw dose-response value) ([6]; dose 0.37037 µM): 0.05318 and 0.03953 and 0.04525 | prolyl-isomerase activity (raw dose-response value) ([6]; dose 1.11111 µM): 0.03174 and 0.02714 and 0.02735 | prolyl-isomerase activity (raw dose-response value) ([6]; dose 3.33333 µM): 0.02002 and 0.01837 and 0.01843 | prolyl-isomerase activity (raw dose-response value) ([6]; dose 10 µM): 0.01579 and 0.01529 and 0.01363 | IC50 ([6]; wild-type CypB, read-out: Wild-Type Cyclophilin Prolyl Isomerase Inhibition IC50 Values, CypB): 0.16 µM | prolyl-isomerase activity (raw dose-response value) ([7]; PPIL1, dose 0.0228624 µM): 0.08321 and 0.1059 and 0.1063 | prolyl-isomerase activity (raw dose-response value) ([7]; PPIL1, dose 0.0685871 µM): 0.0991 and 0.07246 and 0.09332 | prolyl-isomerase activity (raw dose-response value) ([7]; PPIL1, dose 0.205761 µM): 0.0916 and 0.08667 and 0.07563 | prolyl-isomerase activity (raw dose-response value) ([7]; PPIL1, dose 0.617284 µM): 0.08092 and 0.07121 and 0.1066 | prolyl-isomerase activity (raw dose-response value) ([7]; PPIL1, dose 1.85185 µM): 0.07438 and 0.05377 and 0.06473 | prolyl-isomerase activity (raw dose-response value) ([7]; PPIL1, dose 5.55556 µM): 0.04981 and 0.03892 and 0.03912 | prolyl-isomerase activity (raw dose-response value) ([7]; PPIL1, dose 16.6667 µM): 0.02881 and 0.02468 and 0.02483 | prolyl-isomerase activity (raw dose-response value) ([7]; PPIL1, dose 50 µM): 0.01705 and 0.01748 and 0.0139 | IC50 ([7]; wild-type PPIL1, read-out: Wild-Type Cyclophilin Prolyl Isomerase Inhibition IC50 Values, PPIL1): 1.9 µM
